The structures appear in SMILES notation.

For test [1], the system named is human iPSC-derived nonalcoholic steatohepatitis organoids. The test is described as follows: Effective drug test on human iPSC-derived nonalcoholic steatohepatitis organoids (HEMKS) in 100-well HD chip: qPCR, immunostaining, BODIPY. Format: cell-based. As to conditions: oleic acid 500 μM + ezetimibe 50 μM for 2 days. As to the method:
Human iPSC-derived liver organoids (HEMKS) were fabricated in the high-throughput 100-well HD chip. Then, a normal group was cultured in a normal culture medium for 7 days, whereas a nonalcoholic steatohepatitis (NASH) group was normally cultured for 5 days and then further cultured for 2 days in the culture medium mixed with 500 μM oleic acid, a free fatty acid, to induce steatohepatitis. Ezetimibe (Eze), an effective drug for treatment of fatty liver, is a drug candidate group that serves as a cholesterol absorption inhibitor and is conventionally used to treat high blood cholesterol and lipid abnormalities. After 5 days of normal culture, oleic acid (500 μM) and ezetimibe (50 μM) were mixed in the culture medium, followed by additional culture for 2 days to test the drug for steatohepatitis. After a total of 7 days of culture, the degree of fat accumulation was compared and the maker expression and gene expression were compared between groups by immunostaining and quantitative PCR analysis. For more accurate steatohepatitis modeling and drug screening, liver organoids containing immune cells (Kupffer cells) and mesenchymal cells (hepatic stellate cells) constituting a liver tissue microenvironment were fabricated. To this end, human iPSC-derived liver organoids were fabricated at a ratio of iPSC hepatic cells (H): vascular endothelial cells (E): mesenchymal stem cells (M): iPSC-derived Kupffer cells (K): iPSC-derived hepatic stellate cells (S)=10:7:2:2:1 (HEMKS).
A general note: Real-time PCR tracks product formation cycle by cycle.

Test [2] has the same test system. The test is described as follows: ROS quantitative analysis by CM-H2DCFDA staining of NASH organoids in 100-well HD chip. Format: cell-based. As to conditions: NASH+Eze versus NASH organoid. As to the method:
To check the accumulation of reactive oxygen species (ROS) caused by oxidative stress in Normal, NASH and NASH+Eze human iPSC-derived liver organoids (HEMKS) fabricated in the high-throughput 100-well HD chip by the same culture method as described above, ROS activity and quantitative analysis between the groups was performed by CM-H2DCFDA staining, which is oxidative stress detection assay.
The high-throughput HD chip was designed and fabricated with the same dimensions as a commercially available conventional 384-well plate.

Where [3] appears, read: quantitative PCR, versus NASH group.

As for `O=C1[C@H](CC[C@H](O)c2ccc(F)cc2)[C@@H](c2ccc(O)cc2)N1c1ccc(F)cc1` [Eze, Ezetimibe], the “expression level of ALB, a hepatic differentiation marker” value in test [1] (immunostaining, versus NASH organoid) was “recovered to a certain level”. Besides, the “fatty acid accumulation (BODIPY fluorescence signal labeling lipid)” value in test [1] (versus NASH organoid) was “decreased”. In test [1] (setting [3]), the “expression level of PLIN2, a fatty acid accumulation marker” value was “decreased”; the “expression level of SMA, liver fibrosis marker” value is given as “decreased”; the “expression level of TNF-α, an inflammation marker” value was “decreased”; the “expression level of VIM, liver fibrosis marker” value was “decreased”. Also, the “oxidative stress caused by ROS” value in test [2] (CM-H2DCFDA staining, imaging) is “decreased to a certain level or less”. Further, the “fluorescence intensity (ROS oxidative stress)” value in test [2] (on-chip analysis with plate reader) is listed as “decreased”.

Source of the values: US20240026268A1, “MICROFLUIDIC HANGING DROP CULTURE DEVICE FOR CULTURING CELL AGGREGATE” (CELLARTGEN INC., priority 2021, published 2024).
